Test results as given in BindingDB's records for doi:10.1111/j.1471-4159.1990.tb04946.x (Schering-Plough Research Institute, 1990).

What follows are compounds tested against Hrh3 protein (Rattus norvegicus, UniProt Q5PPG3).
Chain of Hrh3 protein (Q5PPG3 whole entry): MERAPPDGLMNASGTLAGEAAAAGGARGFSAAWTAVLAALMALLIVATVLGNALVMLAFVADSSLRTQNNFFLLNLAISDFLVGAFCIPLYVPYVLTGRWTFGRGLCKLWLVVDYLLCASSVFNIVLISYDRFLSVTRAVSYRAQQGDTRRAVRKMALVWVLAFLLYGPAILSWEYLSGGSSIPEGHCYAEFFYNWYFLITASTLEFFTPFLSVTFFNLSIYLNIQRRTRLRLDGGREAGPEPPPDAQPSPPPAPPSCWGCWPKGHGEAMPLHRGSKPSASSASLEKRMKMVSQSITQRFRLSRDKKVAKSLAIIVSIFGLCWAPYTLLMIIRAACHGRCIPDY

| SMILES | Ki |
| --- | --- |
| CNC(=NCCSCc1csc(N=C(N)N)n1)NC#N [[3H]tiotidine] | > 10 µM |
| CN(C)CCC(c1ccc(Cl)cc1)c1ccccn1 (centres undefined) [clorfeniramina] | > 10 µM |
| c1c[nH]cn1 | > 10 µM |
| C[C@@H](N)Cc1c[nH]cn1 | 0.0012 µM |
| CN/C(=N/CCSCc1nc[nH]c1C)NC#N | 8 µM |
| COc1ccc(CN(CCN(C)C)c2ccccn2)cc1 | > 10 µM |
| Cc1[nH]cnc1CSCCNC(=N)NCCCc1c[nH]cn1 [2-[3-(1H-imidazol-5-yl)propyl]-1-(2-{[(5-methyl-1H-imidazol-4-yl)methyl]sulfanyl}ethyl)guanidine] | 0.046 µM |
| S=C(NC1CCCCC1)N1CCC(c2cnc[nH]2)CC1 | 0.016 µM |
| NCCc1c[nH]cn1 [[3H]histamine] | 0.011 µM |
| CN/C([CH-][N+](=O)[O-])=[NH+]\CCSCc1ccc(CN(C)C)o1 | > 10 µM |
| C/N=C(\S)NCCSCc1[nH]cnc1C [CAS_34839-70-8] | > 10 µM |
| CNCCc1c[nH]cn1 [N(alpha)-Methylhistamine] | 0.00045 µM |
| CN(C)CCCSC(=N)N [[3-(carbamimidoylsulfanyl)propyl]dimethylamine] | 0.44 µM |
| NC(Cc1c[nH]cn1)C(=O)O (centres undefined) [NSC_773] | > 10 µM |
